Laboratory results published in US20250287944A1, “AMINOETHOXYVINYLGLYCINE AND 1-AMINO-1-CYCLOPROPANECARBOXYLIC ACID AND USES THEREOF” (Valent BioSciences LLC, priority 2024, published 2025).

How the values were obtained:
Assay type in all cases: in vivo
[1] = system: apples, Cripps Pink variety; assay: Apple coloration in Cripps Pink variety (blush classes); settings: 34 hours post spray; for % Cripps Red: apples with a blush from 20% to 40%; for % Pink Lady: apples with a blush of greater than 40%; for % Class 3: apples with a blush of less than 20%
Procedure: 10 sets of unripened apples, Cripps Pink variety, harvested three weeks before the normal harvest date, were each foliar sprayed with either 1) 0.05% Regulaid® as a control, 2) 125 ppm ACC, 3) 250 ppm ACC, 4) 500 ppm ACC, 5) 125 ppm AVG, 6) 125 ppm ACC and 125 ppm AVG, 7) 250 ppm ACC and 125 ppm AVG or 8) 500 ppm ACC and 125 ppm AVG. 34 hours post spray application percent red pixel area (shaded) was measured. Pink Lady denotes apples with a blush of greater than 40%, Cripps Red denotes apples with a blush from 20% to 40% and Class 3 denotes apples with a blush of less than 20%.

[2] = system: apple trees with mature apples of the Cripps Pink variety; assay: Fruit drop in Cripps Pink variety
Text: AVG and/or ACC were applied to apple trees with mature apples of the Cripps Pink variety, wherein each set of trees were foliar sprayed with either 1) 0.05% Regulaid® as a control, 2) 125 ppm ACC, 3) 250 ppm ACC, 4) 500 ppm ACC, 5) 125 ppm AVG, 6) 125 ppm ACC and 125 ppm AVG, 7) 250 ppm ACC and 125 ppm AVG or 8) 500 ppm ACC and 125 ppm AVG.

[3] = system: apples, Cripps Pink variety; assay: Apple greasiness in Cripps Pink variety; settings: 12 weeks of cold storage and 7 days at room temperature
Procedure: 10 sets of unripened apples, Cripps Pink variety, harvested three weeks before the normal harvest date, were each foliar sprayed with either 1) 0.05% Regulaid® as a control, 2) 125 ppm ACC, 3) 250 ppm ACC, 4) 500 ppm ACC, 5) 125 ppm AVG, 6) 125 ppm ACC and 125 ppm AVG, 7) 250 ppm ACC and 125 ppm AVG or 8) 500 ppm ACC and 125 ppm AVG. Following 12 weeks of cold storage and 7 days at room temperature greasiness was measured.

[4] = system: apples, Cripps Pink variety; assay: Apple characteristics in Cripps Pink variety (red pixel area, ground color, firmness, starch conversion, brix); set-up: Ground Color / Starch: scale not given here; Firmness: unit not given here; settings: 34 hours post spray; for Average % Red Pixel Area: shaded; for Starch: starch conversion
Procedure: 10 sets of unripened apples, Cripps Pink variety, harvested three weeks before the normal harvest date, were each foliar sprayed with either 1) 0.05% Regulaid® as a control, 2) 125 ppm ACC, 3) 250 ppm ACC, 4) 500 ppm ACC, 5) 125 ppm AVG, 6) 125 ppm ACC and 125 ppm AVG, 7) 250 ppm ACC and 125 ppm AVG or 8) 500 ppm ACC and 125 ppm AVG. 34 hours post spray application percent red pixel area (shaded), ground color, fruit firmness, starch conversion and brix were measured.

[5] = harvest 1, 125 ppm foliar spray
[6] = harvest 1, 250 ppm foliar spray
[7] = harvest 1, 500 ppm foliar spray
[8] = harvest 2, 125 ppm foliar spray
[9] = harvest 2, 250 ppm foliar spray
[10] = harvest 2, 500 ppm foliar spray

Structure (SMILES): NC1(C(=O)O)CC1 [ACC, 1-amino-1-cyclopropanecarboxylic acid]
- % Cripps Red ([1]; 125 ppm foliar spray): 15%
- % Cripps Red ([1]; 250 ppm foliar spray): 11.5%
- % Cripps Red ([1]; 500 ppm foliar spray): 9%
- % Pink Lady ([1]; 125 ppm foliar spray): 76.5%
- % Pink Lady ([1]; 250 ppm foliar spray): 84.5%
- % Pink Lady ([1]; 500 ppm foliar spray): 89%
- % Class 3 ([1]; 125 ppm foliar spray): 8.5%
- % Class 3 ([1]; 250 ppm foliar spray): 4%
- % Class 3 ([1]; 500 ppm foliar spray): 2%
- # of Fruit Dropped (Evaluation 1) ([2]; 125 ppm foliar spray to trees): 11.3 c
- # of Fruit Dropped (Evaluation 2) ([2]; 125 ppm foliar spray to trees): 10.4 bc
- Total # of Fruit Dropped ([2]; 125 ppm foliar spray to trees): 26.3 c
- # of Fruit Dropped (Evaluation 1) ([2]; 250 ppm foliar spray to trees): 15.2 c
- # of Fruit Dropped (Evaluation 2) ([2]; 250 ppm foliar spray to trees): 16.4 b
- Total # of Fruit Dropped ([2]; 250 ppm foliar spray to trees): 35.2 bc
- # of Fruit Dropped (Evaluation 1) ([2]; 500 ppm foliar spray to trees): 59.7 a
- # of Fruit Dropped (Evaluation 2) ([2]; 500 ppm foliar spray to trees): 40.1 a
- Total # of Fruit Dropped ([2]; 500 ppm foliar spray to trees): 105.8 a
- Percent Fruit with Moderate Greasiness [3, 5]: 40%
- Percent Fruit with No Greasiness [3, 5]: 21%
- Percent Fruit with Severe Greasiness [3, 5]: 17%
- Percent Fruit with Slight Greasiness [3, 5]: 22%
- Percent Fruit with Moderate Greasiness [3, 6]: 40%
- Percent Fruit with No Greasiness [3, 6]: 5%
- Percent Fruit with Severe Greasiness [3, 6]: 39%
- Percent Fruit with Slight Greasiness [3, 6]: 16%
- Percent Fruit with Moderate Greasiness [3, 7]: 44%
- Percent Fruit with No Greasiness [3, 7]: 1%
- Percent Fruit with Severe Greasiness [3, 7]: 48%
- Percent Fruit with Slight Greasiness [3, 7]: 7%
- Percent Fruit with Moderate Greasiness [3, 8]: 31.1%
- Percent Fruit with No Greasiness [3, 8]: 0%
- Percent Fruit with Severe Greasiness [3, 8]: 68.9%
- Percent Fruit with Slight Greasiness [3, 8]: 0%
- Percent Fruit with Moderate Greasiness [3, 9]: 15%
- Percent Fruit with No Greasiness [3, 9]: 0%
- Percent Fruit with Severe Greasiness [3, 9]: 85%
- Percent Fruit with Slight Greasiness [3, 9]: 0%
- Percent Fruit with Moderate Greasiness [3, 10]: 19%
- Percent Fruit with No Greasiness [3, 10]: 0%
- Percent Fruit with Severe Greasiness [3, 10]: 81%
- Percent Fruit with Slight Greasiness [3, 10]: 0%
- Brix ([4]; 125 ppm foliar spray): 12.25
- Firmness ([4]; 125 ppm foliar spray): 8.61
- Ground Color ([4]; 125 ppm foliar spray): 3.01
- Average % Red Pixel Area ([4]; 125 ppm foliar spray): 6.9%
- Brix ([4]; 250 ppm foliar spray): 12.5
- Firmness ([4]; 250 ppm foliar spray): 8.58
- Ground Color ([4]; 250 ppm foliar spray): 2.96
- Average % Red Pixel Area ([4]; 250 ppm foliar spray): 8%
- Brix ([4]; 500 ppm foliar spray): 12.51
- Firmness ([4]; 500 ppm foliar spray): 8.4
- Ground Color ([4]; 500 ppm foliar spray): 3.04
- Average % Red Pixel Area ([4]; 500 ppm foliar spray): 8.7%
- Starch ([4]; 125 ppm foliar spray): 40
- Starch ([4]; 250 ppm foliar spray): 45.3
- Starch ([4]; 500 ppm foliar spray): 56.2

Structure (SMILES): NCCO/C=C/[C@H](N)C(=O)O [AVG, ([S]-trans-2-amino-4-(2-aminoethoxy)-3-butenoic acid]
- % Cripps Red ([1]; 125 ppm foliar spray): 21.5%
- % Pink Lady ([1]; 125 ppm foliar spray): 69.5%
- % Class 3 ([1]; 125 ppm foliar spray): 9%
- # of Fruit Dropped (Evaluation 1) ([2]; 125 ppm foliar spray to trees): 9.7 c
- # of Fruit Dropped (Evaluation 2) ([2]; 125 ppm foliar spray to trees): 7.4 c
- Total # of Fruit Dropped ([2]; 125 ppm foliar spray to trees): 20.8 c
- Percent Fruit with Moderate Greasiness [3, 5]: 1%
- Percent Fruit with No Greasiness [3, 5]: 94%
- Percent Fruit with Severe Greasiness [3, 5]: 0%
- Percent Fruit with Slight Greasiness [3, 5]: 5%
- Percent Fruit with Moderate Greasiness [3, 8]: 49%
- Percent Fruit with No Greasiness [3, 8]: 22%
- Percent Fruit with Severe Greasiness [3, 8]: 2%
- Percent Fruit with Slight Greasiness [3, 8]: 27%
- Brix ([4]; 125 ppm foliar spray): 12.33
- Firmness ([4]; 125 ppm foliar spray): 8.62
- Ground Color ([4]; 125 ppm foliar spray): 2.93
- Average % Red Pixel Area ([4]; 125 ppm foliar spray): 6.3%
- Starch ([4]; 125 ppm foliar spray): 25.9
